Measurements from article PMC4091617 (Chemical communications (Cambridge, England), 2011).

Biological target: T1, DhpI (Streptomyces luridus, UniProt D7PC21)
T1 sequence (D7PC21 1-218): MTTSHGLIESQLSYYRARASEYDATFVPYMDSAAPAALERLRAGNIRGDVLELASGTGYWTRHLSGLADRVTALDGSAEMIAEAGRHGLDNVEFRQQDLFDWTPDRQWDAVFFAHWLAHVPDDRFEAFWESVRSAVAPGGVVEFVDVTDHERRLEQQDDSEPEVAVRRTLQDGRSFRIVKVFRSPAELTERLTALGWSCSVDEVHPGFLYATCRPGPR
Assay: in vitro O-methylation
Assay type: biochemical
Conditions: SAM as methyl donor; Pfs present

## CC(=O)N(O)CCCP(=O)(O)O [FR-900098]
  in vitro O-methylation: These four phosphonates were used as the basis; each was methylated by DhpI
